The supplement of paper PMC10307832

Legend:
Assay in all cases: relative viability (nuclei count vs DMSO), 5 days (fraction); higher = more cells survive
[1] = compound: C/C(=N\NC(=S)N1CCC1)/C2=CC=CC=N2
Summary of the method: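 Hoechst staining, done together with fixation and permeabilisation, marked nuclei for 4× imaging and MetaXpress counting. This followed 5 days without medium change after lung cancer cell lines, kept overnight at 37 °C in 1536-well plates, were pinned with five library-drug doses (not always all listed) spaced by √10 on vehicle-anchored plates. Viability is the ratio of treated-well to vehicle-well nuclei, expressed as a median across plates. Plates passed only at control CV below 25% with at least one doubling.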

[2] = compound: C/C(=N\NC(=S)N1CCC1)/C2=CC=CC=N2 + Cc1cc(Nc2cc(N3CCN(C)CC3)nc(Sc3ccc(NC(=O)C4CC4)cc3)n2)n[nH]1 [Tozasertib] (partner 0.1 µM)
Summary of the method: (§1)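 A single step with final 0.05% Triton X-100, 1% formaldehyde and 1 ug/ml Hoechst fixed the cells and stained nuclei 5 days after treatment. Lung cancer cell lines in 1536-well plates had been treated by pin tool the day after seeding with one drug alone or a fixed anchor-drug dose plus five library-drug doses (not always all listed) in √10 steps, and nuclei were counted on 4× images. Relative viability is the ratio of nuclei in treated wells to nuclei in vehicle wells, taken as the median of duplicate plates.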

[3] = compound: C/C(=N\NC(=S)N1CCC1)/C2=CC=CC=N2 + Nc1nc2[nH]cc(CCc3ccc(C(=O)N[C@@H](CCC(=O)O)C(=O)O)cc3)c2c(=O)[nH]1 [Pemetrexed] (partner 0.2 µM)
Summary of the method: as §1

[4] = compound: C/C(=N\NC(=S)N1CCC1)/C2=CC=CC=N2 + CC(=O)c1c(C)c2cnc(Nc3ccc(N4CCNCC4)cn3)nc2n(C2CCCC2)c1=O [Palbociclib] (partner 0.5 µM)
Summary of the method: as §1

[5] = compound: C/C(=N\NC(=S)N1CCC1)/C2=CC=CC=N2 + Cc1nc(Nc2ncc(C(=O)Nc3c(C)cccc3Cl)s2)cc(N2CCN(CCO)CC2)n1 [Dasatinib] (partner 0.075 µM)
Summary of the method: as §1

[6] = compound: C/C(=N\NC(=S)N1CCC1)/C2=CC=CC=N2 + O=C(c1cc(Cc2n[nH]c(=O)c3ccccc23)ccc1F)N1CCN(C(=O)C2CC2)CC1 [Olaparib] (partner 8 µM)
Summary of the method: as §1

[7] = compound: C/C(=N\NC(=S)N1CCC1)/C2=CC=CC=N2 + CCNC(=O)c1noc(-c2cc(C(C)C)c(O)cc2O)c1-c1ccc(CN2CCOCC2)cc1 [Luminespib] (partner 0.01 µM)
Summary of the method: as §1

[8] = compound: C/C(=N\NC(=S)N1CCC1)/C2=CC=CC=N2 + Nc1ncn([C@H]2C[C@H](O)[C@@H](CO)O2)c(=O)n1 [Decitabine] (partner 2 µM)
Summary of the method: as §1

[9] = compound: C/C(=N\NC(=S)N1CCC1)/C2=CC=CC=N2 + COc1cccc2cc(-c3nc([C@H]4CC[C@H](C(=O)O)CC4)n4ncnc(N)c34)[nH]c12 [OSI-027] (partner 0.5 µM)
Summary of the method: as §1

[10] = compound: C/C(=N\NC(=S)N1CCC1)/C2=CC=CC=N2 + N=C(N)NC(=N)NCCc1ccccc1 [Phenformin] (partner 250 µM)
Summary of the method: as §1

[11] = compound: C/C(=N\NC(=S)N1CCC1)/C2=CC=CC=N2 + NC(=O)Nc1cc(-c2cccc(F)c2)sc1C(=O)N[C@H]1CCCNC1 [AZD7762] (partner 0.2 µM)
Summary of the method: as §1

[12] = compound: C/C(=N\NC(=S)N1CCC1)/C2=CC=CC=N2 + O=C(CCCCCCC(=O)Nc1ccccc1)NO [Vorinostat] (partner 1 µM)
Summary of the method: as §1

[13] = compound: C/C(=N\NC(=S)N1CCC1)/C2=CC=CC=N2 + CC(=O)Nc1cccc(-n2c(=O)n(C3CC3)c(=O)c3c(Nc4ccc(I)cc4F)n(C)c(=O)c(C)c32)c1 [Trametinib] (partner 0.02 µM)
Summary of the method: as §1

[14] = compound: C/C(=N\NC(=S)N1CCC1)/C2=CC=CC=N2 + COc1cc2c(Oc3ccc(NC(=O)C4(C(=O)Nc5ccc(F)cc5)CC4)cc3F)ccnc2cc1OCCCN1CCOCC1 [Foretinib] (partner 0.25 µM)
Summary of the method: as §1

## NCI-H522
[1]; 0.05 µM
  relative viability: 0.334
[1]; 0.1581 µM
  relative viability: 0.389
[1]; 0.5 µM
  relative viability: 0.351
[1]; 1.581 µM
  relative viability: 0.346
[1]; 5 µM
  relative viability: 0.358
[2]; first compound 0.1581 µM
  relative viability: 0.292
[2]; first compound 0.5 µM
  relative viability: 0.296
[2]; first compound 5 µM
  relative viability: 0.407
[3]; first compound 0.05 µM
  relative viability: 0.243
[3]; first compound 0.1581 µM
  relative viability: 0.299
[3]; first compound 0.5 µM
  relative viability: 0.284
[3]; first compound 1.581 µM
  relative viability: 0.352
[3]; first compound 5 µM
  relative viability: 0.364
[4]; first compound 0.05 µM
  relative viability: 0.432
[4]; first compound 0.1581 µM
  relative viability: 0.376
[4]; first compound 0.5 µM
  relative viability: 0.284
[4]; first compound 1.581 µM
  relative viability: 0.381
[4]; first compound 5 µM
  relative viability: 0.412
[5]; first compound 0.1581 µM
  relative viability: 0.332
[5]; first compound 0.5 µM
  relative viability: 0.494
[5]; first compound 5 µM
  relative viability: 0.416
[6]; first compound 0.05 µM
  relative viability: 0.291
[6]; first compound 0.1581 µM
  relative viability: 0.335
[6]; first compound 0.5 µM
  relative viability: 0.303
[6]; first compound 1.581 µM
  relative viability: 0.311
[6]; first compound 5 µM
  relative viability: 0.329
[7]; first compound 0.05 µM
  relative viability: 0.353
[7]; first compound 0.1581 µM
  relative viability: 0.375
[7]; first compound 0.5 µM
  relative viability: 0.369
[7]; first compound 1.581 µM
  relative viability: 0.412
[7]; first compound 5 µM
  relative viability: 0.49
[8]; first compound 0.05 µM
  relative viability: 0.402
[8]; first compound 0.1581 µM
  relative viability: 0.456
[8]; first compound 0.5 µM
  relative viability: 0.333
[8]; first compound 1.581 µM
  relative viability: 0.345
[8]; first compound 5 µM
  relative viability: 0.385
[9]; first compound 0.1581 µM
  relative viability: 0.341
[9]; first compound 0.5 µM
  relative viability: 0.495
[9]; first compound 5 µM
  relative viability: 0.561
[10]; first compound 0.1581 µM
  relative viability: 0.27
[10]; first compound 0.5 µM
  relative viability: 0.398
[10]; first compound 5 µM
  relative viability: 0.503
[11]; first compound 0.05 µM
  relative viability: 0.307
[11]; first compound 0.1581 µM
  relative viability: 0.279
[11]; first compound 0.5 µM
  relative viability: 0.24
[11]; first compound 1.581 µM
  relative viability: 0.292
[11]; first compound 5 µM
  relative viability: 0.397
[12]; first compound 0.05 µM
  relative viability: 0.272
[12]; first compound 0.1581 µM
  relative viability: 0.322
[12]; first compound 0.5 µM
  relative viability: 0.265
[12]; first compound 1.581 µM
  relative viability: 0.369
[12]; first compound 5 µM
  relative viability: 0.411
[13]; first compound 0.05 µM
  relative viability: 0.367
[13]; first compound 0.1581 µM
  relative viability: 0.334
[13]; first compound 0.5 µM
  relative viability: 0.241
[13]; first compound 1.581 µM
  relative viability: 0.271
[13]; first compound 5 µM
  relative viability: 0.364

## NCI-H1623
[1]; 0.05 µM
  relative viability: 0.395
[1]; 0.1581 µM
  relative viability: 0.415
[1]; 0.5 µM
  relative viability: 0.403
[1]; 1.581 µM
  relative viability: 0.357
[1]; 5 µM
  relative viability: 0.32
[2]; first compound 0.05 µM
  relative viability: 0.32
[2]; first compound 0.1581 µM
  relative viability: 0.329
[2]; first compound 0.5 µM
  relative viability: 0.323
[2]; first compound 1.581 µM
  relative viability: 0.269
[2]; first compound 5 µM
  relative viability: 0.266
[14]; first compound 0.05 µM
  relative viability: 0.39
[14]; first compound 0.1581 µM
  relative viability: 0.372
[14]; first compound 0.5 µM
  relative viability: 0.414
[14]; first compound 1.581 µM
  relative viability: 0.347
[14]; first compound 5 µM
  relative viability: 0.622
[5]; first compound 0.05 µM
  relative viability: 0.32
[5]; first compound 0.1581 µM
  relative viability: 0.364
[5]; first compound 0.5 µM
  relative viability: 0.293
[5]; first compound 1.581 µM
  relative viability: 0.276
[5]; first compound 5 µM
  relative viability: 0.528
[7]; first compound 0.05 µM
  relative viability: 0.241
[7]; first compound 0.1581 µM
  relative viability: 0.295
[7]; first compound 0.5 µM
  relative viability: 0.303
[7]; first compound 1.581 µM
  relative viability: 0.231
[7]; first compound 5 µM
  relative viability: 0.322
[9]; first compound 0.05 µM
  relative viability: 0.336
[9]; first compound 0.1581 µM
  relative viability: 0.367
[9]; first compound 0.5 µM
  relative viability: 0.332
[9]; first compound 1.581 µM
  relative viability: 0.268
[9]; first compound 5 µM
  relative viability: 0.293
[10]; first compound 0.05 µM
  relative viability: 0.366
[10]; first compound 0.1581 µM
  relative viability: 0.337
[10]; first compound 0.5 µM
  relative viability: 0.424
[10]; first compound 1.581 µM
  relative viability: 0.349
[10]; first compound 5 µM
  relative viability: 0.636
